Test results published in patent publication US20060167057A1, “Compounds for the treatment of CNS and amyloid associated diseases” (priority 2004, published 2006).

Molecular target: T1, L1 transport system (large neutral amino acid carrier, L1-system carrier) (Rattus norvegicus, UniProt Q63016)
T1 construct: functionality of their endogenous transporters such as the L1-system carrier; endogenous in cells; host or cells: rat primary cerebrovascular (brain microcapillary) endothelial cells, RBEC
Assay: Competitive binding assay to the brain L1 transport system (L-[U-14C]phenylalanine on rat primary cerebrovascular endothelial cells)
Conditions: for Status of Binding: compounds of Example 4, 10^−6, 10^−5 and 10^−4, Δ versus phenylalanine
Method: Compound samples in PBS (without Ca^+2, Mg^+2)-glucose 30 mM-HEPES 10 mM—DMSO 1% as prepared in Example 1 were thawed and left for at least 30 minutes at 20-23° C. before preparation of the following sub-dilutions for the competitive binding assay: • 200 μL of the stock solution were added to 800 μL PBS (without Ca^+2, Mg^+2)-Glucose-HEPES-1% DMSO (PBSD-1) [diluted 1:5 for a final 1:5 dilution] • 100 μL (1/5 dilution above) were added to 900 μL PBSD-1 [diluted 1:10 for a final 1:50 dilution] • 100 μL (1/50 dilution above) were added to 900 μL PBSD-1 [diluted 1:10 for a final 1:500 dilution]
These sub-dilutions were used immediately or stored overnight at 4° C. before the competitive binding assay. A volume of 45 μL of each of the compound dilutions (1:5, 1:50, 1:500) in PBSD-1 was added to the appropriate wells in the dilution plate.
Brains from sixty 24-day-old rats were dissected individually on a sterile lint moistened with ice cold Hanks' balanced salt solution (Gibco BRL, Grand Island, N.Y.) containing 10 mM HEPES (medium 1) supplemented with 0.1% BSA. Cerebellum, striatum, optic nerves, and brain stem (white matter) were removed. After a mid-sagittal section of the brain, the meninges and leptomeningeal debris were removed by rolling a sterile dry cotton swab on the cortices. (Ichikawa N, Naora K, Hirano H, Hashimoto M, Masumura S, and Iwamoto K (1996). Isolation and primary culture of rat cerebral microvascular endothelial cells for studying drug transport in vitro. J Pharmacol Toxicol Meth 36: 45-52.). Clean cortices were minced in pieces of ≈2 mm^3 in 15 mL of ice-cold medium 1-0.1% BSA. The preparation was divided into 4 sterile pre-weighed tubes and centrifuged at 330× g at 20-25° C. for 5 min. Tubes were weighed and pre-warmed (37° C.) and medium 1 with 0.5% BSA containing 0.3% collagenase and 10 μg/mL DNAse 1 (Roche, Laval, Quebec, Canada) were added to each tube (1 mL/g of tissue).
The brain-collagenase mixture was vigorously agitated in a water bath at 37° C. for 90 min. Fifteen min before the end of the digestion, the tissue was homogenized using a 10-mL pipette until a creamy mixture was obtained (≈20 aspirations). Cells were washed by adding medium 1 with 0.1% BSA to the homogenate (26 mL/tube) and centrifuged at 100× g at 20-25° C. for 7 min. This washing step was repeated 3 more times, once for 5 min and twice for 3 min. Each pellet was re-suspended in 25 mL of a 15% dextran solution prepared in medium 1 with 0.1% BSA and centrifuged at 3200× g at 4° C. for 25 min to isolate vessels from neural tissue and dextran layers. Vascular pellets were re-suspended in 5 mL Ca^++—Mg^++-free-medium 1 with 0.1% BSA (medium 2) at 20-25° C. and transferred in a 50-mL tube. Remaining vessels were collected by rinsing the tubes and pooling the rinsing suspension. (Rupnick M A, Carey A, and Williams S K (1988). Phenotypic diversity in cultured cerebral microvascular endothelial cells in vitro. Cell Develop Biol 24: 435-444.)
The vascular preparation was filtered and rinsed (20 mL of medium 2) through a sterile 355-μm mesh. The 355-μm filtrate was sequentially filtered twice (20 mL of medium 2) through sterile 112-μm meshes and rinsed (Stanimirovic D B, Wong J, Ball R, and Durkin J P (1995). Free radical-induced endothelial membrane dysfunction at the site of the blood-brain barrier: relationship between lipid peroxidation, Na,K-ATPase activity, and ^51Cr release. Neurochem Res 20:1417-1427.) and the latter filtrate was filtered and rinsed through a sterile 20-μm mesh. A final step of filtration and rinse was repeated through a double layer of 20-μm meshes. All 20-μm meshes, which retained the microcapillaries, were then transferred into a 50-mL tube containing 20 mL of a 0.1% collagenase/dispase (Roche) solution in medium 2 supplemented with 10 μg/mL DNAse 1 and 0.147 μg/mL tosyl-lysine-chloromethyl-ketone (Sigma Chemical Co., Oakville, Ontario, Canada) (medium 3).

T1 sequence (Q63016 whole entry): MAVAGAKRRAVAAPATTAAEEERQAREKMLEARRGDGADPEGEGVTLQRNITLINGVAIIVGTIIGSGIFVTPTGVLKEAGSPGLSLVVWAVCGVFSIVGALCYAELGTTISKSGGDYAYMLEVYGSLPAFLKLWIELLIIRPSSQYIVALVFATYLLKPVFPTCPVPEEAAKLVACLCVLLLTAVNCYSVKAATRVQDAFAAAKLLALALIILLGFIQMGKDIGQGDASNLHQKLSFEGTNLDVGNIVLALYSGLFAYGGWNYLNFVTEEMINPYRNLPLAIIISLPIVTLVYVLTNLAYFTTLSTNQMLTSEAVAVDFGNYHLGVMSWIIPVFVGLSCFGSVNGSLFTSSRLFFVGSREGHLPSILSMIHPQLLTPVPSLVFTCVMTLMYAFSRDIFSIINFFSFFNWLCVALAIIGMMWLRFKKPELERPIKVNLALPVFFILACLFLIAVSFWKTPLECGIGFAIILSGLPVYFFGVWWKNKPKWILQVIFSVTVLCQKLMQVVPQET
T1 sequence (Q794F9 whole entry partner): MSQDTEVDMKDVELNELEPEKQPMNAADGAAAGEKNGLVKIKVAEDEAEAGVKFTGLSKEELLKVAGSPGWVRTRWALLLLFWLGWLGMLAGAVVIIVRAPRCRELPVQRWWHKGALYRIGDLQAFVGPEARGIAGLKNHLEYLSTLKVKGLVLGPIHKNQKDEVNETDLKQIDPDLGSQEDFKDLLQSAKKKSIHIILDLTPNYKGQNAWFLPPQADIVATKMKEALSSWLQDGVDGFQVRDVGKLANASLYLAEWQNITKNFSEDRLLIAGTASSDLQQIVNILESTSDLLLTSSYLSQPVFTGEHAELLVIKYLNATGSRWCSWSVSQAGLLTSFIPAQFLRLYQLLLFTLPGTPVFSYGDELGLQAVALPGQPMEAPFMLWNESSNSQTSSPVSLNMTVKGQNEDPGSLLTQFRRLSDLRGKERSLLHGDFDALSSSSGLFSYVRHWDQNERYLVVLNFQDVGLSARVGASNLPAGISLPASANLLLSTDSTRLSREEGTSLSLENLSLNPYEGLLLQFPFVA

SMILES | Comparison with the Binding of Phenylalanine (10^−4 M) | Comparison with the Binding of Phenylalanine (10^−5 M) | Comparison with the Binding of Phenylalanine (10^−6 M) | Status of Binding
N[C@@H](Cc1cccc(CSc2nnnn2-c2ccc(O)cc2)c1)C(=O)O [drawing 480] |  |  |  | 3 (3: Δ > 10%, significantly higher binding affinity than phenylalanine)
O=C(Nc1ccc(-c2ccccc2)cc1)NC(Cc1cccc(CSc2nnnn2-c2ccccc2)c1)C(=O)O (stereo not shown) [Compound 54] | 1 (0 < X < 10 Rank 1) | 3 (X > 20 Rank 3) | 2 (10 < X < 20 Rank 2) | 
CN(C)CCn1nnnc1SCc1cccc(C[C@H](N)C(=O)O)c1 [drawing 485] |  |  |  | 1 (1: −10 > Δ > −50%, lower binding affinity than phenylalanine)
NC(Cc1cccc(-c2cccc(N3CC=CCC3)c2)c1)C(=O)O (stereo not shown) [Compound 43] | 0 (X < 0 Rank 0) | 2 (10 < X < 20 Rank 2) | 0 (X < 0 Rank 0) | 
O=C(NC(Cc1cccc(CSc2nccc(O)n2)c1)C(=O)O)NC(c1ccccc1)c1ccccc1 (stereo not shown) [Compound 17] | 1 (0 < X < 10 Rank 1) | 1 (0 < X < 10 Rank 1) | 2 (10 < X < 20 Rank 2) | 
NC(Cc1ccc(-c2ccc(CSc3ccnc4cc(C(F)(F)F)ccc34)cc2)cc1)C(=O)O (stereo not shown) [Compound 47] | 0 (X < 0 Rank 0) | 2 (10 < X < 20 Rank 2) | 2 (10 < X < 20 Rank 2) | 
N[C@@H](Cc1ccccc1)C(=O)NC(Cc1cccc(CSc2nnc(-c3ccccc3)o2)c1)C(=O)O (stereo partly shown) [Compound 48] | 0 (X < 0 Rank 0) | 1 (0 < X < 10 Rank 1) | 1 (0 < X < 10 Rank 1) | 
N[C@@H](Cc1ccccc1)C(=O)NC(Cc1cccc(CSc2nnnn2-c2ccc(O)cc2)c1)C(=O)O (stereo partly shown) [Compound 50] | 0 (X < 0 Rank 0) | 2 (10 < X < 20 Rank 2) | 2 (10 < X < 20 Rank 2) | 
NC(=O)C(N)Cc1cccc(CSc2nnnn2-c2ccccc2)c1 (stereo not shown) [Compound 9] | 0 (X < 0 Rank 0) | 1 (0 < X < 10 Rank 1) | 0 (X < 0 Rank 0) | 
N[C@@H](Cc1cccc(CSc2ncnc3[nH]ncc23)n1)C(=O)O [drawing 472] |  |  |  | 0 (0: Δ ≦ −50%, no binding or very low binding affinity)
O=C(Nc1ccc(-c2ccccc2)cc1)NC(Cc1cccc(CSc2nnc(-c3ccccc3)o2)c1)C(=O)O (stereo not shown) [Compound 49] | 2 (10 < X < 20 Rank 2) | 3 (X > 20 Rank 3) | 3 (X > 20 Rank 3) | 
CCOC(=O)c1c[nH]c(Sc2cccc(-c3cccc(CC(N)C(=O)O)c3)c2)nc1=O (stereo not shown) [Compound 72] | 1 (0 < X < 10 Rank 1) | 2 (10 < X < 20 Rank 2) | 1 (0 < X < 10 Rank 1) | 
NC(Cc1cccc(CSc2cncc3c(C(F)(F)F)cccc23)n1)C(=O)O (stereo not shown) [Compound 24] | 0 (X < 0 Rank 0) | 0 (X < 0 Rank 0) | 3 (X > 20 Rank 3) | 
NC(=O)C(N)Cc1cccc(CSc2ncnc3[nH]ncc23)n1 (stereo not shown) [Compound 34] | 0 (X < 0 Rank 0) | 0 (X < 0 Rank 0) | 1 (0 < X < 10 Rank 1) | 
NC(=O)C(N)Cc1cccc(CSc2ncc[nH]2)c1 (stereo not shown) [Compound 6] | 0 (X < 0 Rank 0) | 0 (X < 0 Rank 0) | 3 (X > 20 Rank 3) | 
NC(Cc1cccc(CSc2nnc[nH]2)n1)C(=O)O (stereo not shown) [Compound 35] | 0 (X < 0 Rank 0) | 0 (X < 0 Rank 0) | 3 (X > 20 Rank 3) | 
N[C@@H](Cc1cccc(CSc2nnnn2-c2ccccc2)c1)C(=O)O [drawing 468] |  |  |  | 3 (3: Δ > 10%, significantly higher binding affinity than phenylalanine)

Second part, led by results:

Comparison with the Binding of Phenylalanine (10^−4 M) | Comparison with the Binding of Phenylalanine (10^−5 M) | Comparison with the Binding of Phenylalanine (10^−6 M) | SMILES | Status of Binding
1 (0 < X < 10 Rank 1) | 2 (10 < X < 20 Rank 2) | 0 (X < 0 Rank 0) | CC(=O)c1ccc(N2CCN(Cc3cccc(CC(N)C(=O)O)n3)CC2)cc1 (stereo not shown) [Compound 127] | 
0 (X < 0 Rank 0) | 1 (0 < X < 10 Rank 1) | 1 (0 < X < 10 Rank 1) | NC(Cc1cccc(-c2cccc(Sc3nc(-c4ccccc4)c(-c4ccccc4)[nH]3)c2)c1)C(=O)O (stereo not shown) [Compound 74] | 
2 (10 < X < 20 Rank 2) | 3 (X > 20 Rank 3) | 3 (X > 20 Rank 3) | CCOC(=O)c1c[nH]c(SCc2ccc(-c3ccc(CC(N)C(=O)O)cc3)cc2)nc1=O (stereo not shown) [Compound 87] | 
1 (0 < X < 10 Rank 1) | 1 (0 < X < 10 Rank 1) | 1 (0 < X < 10 Rank 1) | NC(Cc1cccc(CSc2nc3cc([N+](=O)[O-])ccc3[nH]2)n1)C(=O)O (stereo not shown) [Compound 94] | 
0 (X < 0 Rank 0) | 1 (0 < X < 10 Rank 1) | 1 (0 < X < 10 Rank 1) | Cc1nnc(SCc2ccc(-c3ccc(CC(N)C(=O)O)cc3)cc2)s1 (stereo not shown) [Compound 126] | 
0 (X < 0 Rank 0) | 0 (X < 0 Rank 0) | 2 (10 < X < 20 Rank 2) | NC(Cc1ccc(-c2ccc(CSc3nc4ccccc4c(=O)[nH]3)cc2)cc1)C(=O)O (stereo not shown) [Compound 155] | 
2 (10 < X < 20 Rank 2) | 3 (X > 20 Rank 3) | 2 (10 < X < 20 Rank 2) | COc1ccc2[nH]c(SCc3cccc(CC(N)C(=O)O)c3)nc2c1 (stereo not shown) [Compound 135] | 
0 (X < 0 Rank 0) | 1 (0 < X < 10 Rank 1) | 1 (0 < X < 10 Rank 1) | NC(Cc1ccc(-c2ccc(CSc3nc4cc([N+](=O)[O-])ccc4[nH]3)cc2)cc1)C(=O)O (stereo not shown) [Compound 124] | 
1 (0 < X < 10 Rank 1) | 1 (0 < X < 10 Rank 1) | 1 (0 < X < 10 Rank 1) | CN(C)CCn1nnnc1SCc1cccc(CC(N)C(=O)O)n1 (stereo not shown) [Compound 88] | 
2 (10 < X < 20 Rank 2) | 3 (X > 20 Rank 3) | 3 (X > 20 Rank 3) | NC(Cc1cccc(CSc2nc(-c3ccccc3)c(-c3ccccc3)o2)c1)C(=O)O (stereo not shown) [Compound 104] | 
0 (X < 0 Rank 0) | 0 (X < 0 Rank 0) | 3 (X > 20 Rank 3) | Cc1ccnc(Sc2cccc(-c3cccc(CC(N)C(=O)O)c3)c2)n1 (stereo not shown) [Compound 136] | 
